# Assay results reported in US8476315B2, “N-hydroxy C29-amide derivatives of oleandrane” (Onepharm Research & Development GmbH, priority 2009, dated 2013).
# Experiments:
# TNFα = TNFα expression; format: cell-based
# Excerpt: Accordingly, in a further embodiment of the present invention, there is included a method of treating inflammatory diseases comprising administering a TNFα-downregulating effective amount of a compound of the invention to a subject in need thereof. A person skilled in the art would be able to identify TNFα-downregulating compounds of the invention by contacting one or more cells with a compound of the invention and assaying for the presence of one TNFα and comparing the levels of TNFα in the one or more cells with that of controls. Such methods are known in the art and are described in the examples herein below.
# 11β-HSD1 = biological target: T1, 11β-HSD1 (Homo sapiens, UniProt P28845); experiment: 11β-HSD1 activity in lysates of stably transfected HEK-293 cells; format: biochemical; conditions: cell lysate
# T1 construct: expressed in transfected cells
# T1 sequence (P28845 whole entry): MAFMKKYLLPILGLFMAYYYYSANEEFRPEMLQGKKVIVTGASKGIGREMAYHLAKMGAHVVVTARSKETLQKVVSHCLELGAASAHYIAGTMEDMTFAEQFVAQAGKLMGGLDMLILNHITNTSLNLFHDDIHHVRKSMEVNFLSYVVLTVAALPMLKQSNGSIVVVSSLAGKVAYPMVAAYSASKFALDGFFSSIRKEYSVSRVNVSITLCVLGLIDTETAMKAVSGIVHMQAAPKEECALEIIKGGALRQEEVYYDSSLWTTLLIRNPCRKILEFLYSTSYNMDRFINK
# Experimental: (§1) Cell culture media were purchased from Invitrogen, Basel, Switzerland. [1,2,6,7-3H]-cortisol was from Amersham Pharmacia, Dubendorf, Switzerland. [1,2,6,7-3H]-cortisone was produced by incubating 1 mCi of [1,2,6,7-3H]-cortisol with 1 mg of lysate of HEK-293 cells expressing 11β-HSD2 in the presence of 1 mM NAD+. Incubation was for 16 h at 37° C. […] The product was run for a second chromatographic purification step on the same TLC system. […] All other chemicals were from Fluka AG, Buchs, Switzerland and were of the highest grade available.
# HEK-293 cells were transfected with the plasmid for expression of carboxy-terminally FLAG-epitope tagged 11β-HSD1 or 11β-HSD2, respectively, that were described previously. […] Non-resistant cells were removed by replacing the cell culture medium every third day for 3 weeks.
# For determination of oxidative activity of 11β-HSD enzymes, cells were lysed by sonication and the cell lysate was diluted 1:12 in buffer TS2 (at 4° C.).
# (§2) Similarly, reductase activity was measured in a reaction containing NADPH, 30 nCi of [1,2,6,7-3H]-cortisone and unlabeled cortisone, whereby final concentrations were 400 μM NADPH and 10 nM cortisone. […] Activities were determined measuring the conversion of either radiolabeled cortisone or cortisol for 5-20 min using substrate concentrations in the range between 10 nM and 10 μM. 11β-HSD1 activities were measured immediately after cell disruption. […] Results are expressed as mean±S.D. and consist of at least three independent measurements.
# 11β-HSD2 = biological target: T2, 11β-HSD2 (Homo sapiens, UniProt P80365); experiment: 11β-HSD2 activity in lysates of stably transfected HEK-293 cells; format: biochemical; conditions: cell lysate
# T2 construct: expressed in transfected cells
# T2 sequence (P80365 1-405): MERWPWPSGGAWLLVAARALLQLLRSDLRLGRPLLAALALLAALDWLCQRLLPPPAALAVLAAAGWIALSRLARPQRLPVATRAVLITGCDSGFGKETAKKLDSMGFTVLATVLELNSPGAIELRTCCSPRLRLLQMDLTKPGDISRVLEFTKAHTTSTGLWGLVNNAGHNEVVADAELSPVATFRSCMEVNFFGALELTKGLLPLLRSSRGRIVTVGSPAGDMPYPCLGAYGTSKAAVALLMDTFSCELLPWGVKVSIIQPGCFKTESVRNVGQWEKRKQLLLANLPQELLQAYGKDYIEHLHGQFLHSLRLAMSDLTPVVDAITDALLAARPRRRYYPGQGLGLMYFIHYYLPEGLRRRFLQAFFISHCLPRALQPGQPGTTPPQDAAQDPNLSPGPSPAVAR
# Experimental: as §1
# HEK-293 cells were transfected with the plasmid for expression of carboxy-terminally FLAG-epitope tagged 11β-HSD1 or 11β-HSD2, respectively, that were described previously. […] Non-resistant cells were removed by replacing the cell culture medium every third day for 3 weeks. […]
# as §2
# PKC and CK-I = conditions: GL (100 μM); cited from earlier work
# [1] = test system: murine retinal ganglion cells; conditions: cited from earlier work
# CK-2 = conditions: 30 μM GA; cited from earlier work
IC50 (11β-HSD1),IC50 (11β-HSD2),Compound,further results
1.16 µM,,"CC1(C)C2CC[C@]3(C)C(C(=O)C=C4C5C[C@@](C)(C(=O)NO)CC[C@]5(C)CC[C@]43C)[C@@]2(C)CC[C@@H]1O (stereo partly drawn) [Compound 2, (3S,18R,20S)-3-Hydroxy-N-hydroxy-11-oxo-olean-12-en-29-amide]","inhibition at 1 µM (11β-HSD1; Concentration 1000 nmol/L, read-out: Reduction of 11β-HSD1 Activity (%) (average ± standard deviation)): 46.7 ± 13.8%"
0.929 µM,2.13 µM,"CONC(=O)[C@@]1(C)CC[C@]2(C)CC[C@]3(C)C(=CC(=O)C4[C@@]5(C)CC[C@H](O)C(C)(C)C5CC[C@]43C)C2C1 (stereo partly drawn) [Compound 16, (3S,18R,20S)-3-Hydroxy-N-methoxy-11-oxo-olean-12-en-29-amide]",

# Further lines, the compound ahead of its results:
Compound,IC50 (11β-HSD1),IC50 (11β-HSD2),further results
"CC(=O)O[C@H]1CC[C@@]2(C)C(CC[C@]3(C)C2C(=O)C=C2C4C[C@@](C)(C(=O)NO)CC[C@]4(C)CC[C@]23C)C1(C)C (stereo partly drawn) [Compound 1, (3S,18R,20S)-3-(Acetyloxy)-N-hydroxy-11-oxo-olean-12-en-29-amide]",,,TNFα expression (TNFα): inhibit
"CON[C@H]1CC[C@@]2(C)C(CC[C@]3(C)C2C(=O)C=C2C4C[C@@](C)(C(=O)N(C)O)CC[C@]4(C)CC[C@]23C)C1(C)C (stereo partly drawn) [Compound 10, (3S,18R,20S)-N-Hydroxy-N-methyl-3-methoxamino-11-dioxo-olean-12-en-29-amide]",> 40 µM,0.547 µM,
"CC1(C)[C@@H](O[C@H]2O[C@H](C(=O)O)[C@@H](O)[C@H](O)[C@H]2O[C@@H]2O[C@H](C(=O)O)[C@@H](O)[C@H](O)[C@H]2O)CC[C@]2(C)[C@H]3C(=O)C=C4[C@@H]5C[C@@](C)(C(=O)O)CC[C@]5(C)CC[C@@]4(C)[C@]3(C)CC[C@@H]12 [GL, glycyrrhizin]",,,phosphorylation of HMGB1/2 by PKC and CK-I (PKC and CK-I): completely inhibits
"CC1(C)[C@@H](O)CC[C@]2(C)[C@H]3C(=O)C=C4[C@@H]5C[C@@](C)(C(=O)O)CC[C@]5(C)CC[C@@]4(C)[C@]3(C)CC[C@@H]12 [GA, Glycyrrhetinic acid]",,,postsynaptic light response [1]: 30 % of control; phosphorylation of C3α by CK-2 (CK-2): completely inhibited
